Measurements from publication PMC6271273, “Chemo-Enzymatic Synthesis of Silybin and 2,3-Dehydrosilybin Dimers” (Molecules, 2014).
Marks after values point to notes of the source that are not given here.

Tests used:
[1] = DPPH radical scavenging assay; assay type: biochemical; conditions: for DPPH [% of inhibition]: 33 µM test compound, n = 4, absorbance at 517 nm after 30 min
Experimental: Antiradical activity was evaluated spectrophotometrically as the ability of the tested substances to reduce the 1,1-diphenyl-2-picrylhydrazyl (DPPH) radical as described previously with minor modifications. Briefly, a solution of the tested substance (10 µL, final concentration 0–540 µM) were mixed with a freshly prepared methanolic DPPH solution (290 µL, final concentration 20 µM) in a microtiter plate well. After 30 min, absorbance at 517 nm was measured, percentages of inhibition were calculated using the negative control and for selected compounds the IC50 values were obtained from the inhibition curves.

[2] = Stability of dimers in buffers, HPLC; assay type: physicochemical; conditions: PBS and phosphate buffers (0.2 M, pH 7.4), longer than 24 h
Experimental: The stability of the dimers in PBS buffer and phosphate buffer (0.2 M, pH 7.4) was monitored using an HPLC method. […] The chromatography was carried out in a Shimadzu Prominence UFLC system (Kyoto, Japan) consisting of a DGU-20A mobile phase degasser, two LC-20AD solvent delivery units, SIL-20ACHT cooling autosampler, CTO-10AS column oven and SPD-M20A (PDA, photodiode array detector). A Chromolith Performance RP-18e monolithic column (100 × 3 mm i.d.) and guard column (5 × 4.6 mm i.d., both Merck) were used. The PDA data were acquired in the 200–450 nm range and the 285 signal was extracted. Gradient elution: mobile phase A: 0.1% formic acid, 10% methanol in water (v/v/v); mobile phase B: 0.1% formic acid in methanol (v/v); gradient, 0–1 min, 20% B; 1–8 min, 20%–90% B; 8–9 min, 90% B, 9–10 min, 90%–20% B. The flow rate was 1.2 mL/min at 25 °C.

[3] = Square wave voltammetry (in situ / ex situ) at pyrolytic graphite electrode; assay type: physicochemical; conditions: for Oxidation potential Ep1 / Oxidation potential Ep2: SWV, vs. Ag/AgCl/3 M KCl, pH 7.4, n = 3; for Oxidation potential Ep1: ascribed to oxidation of C-20 OH; for Oxidation potential Ep2: oxidation of resorcinol moiety (ring A)
Experimental: The monomeric flavonolignans and their dimers were analyzed using in situ voltammetry with the working electrode (PGE: pyrolytic graphite electrode) dipped in the supporting electrolyte containing the analytes and/or ex situ voltammetric analysis (adsorptive transfer, AdT technique). For this purpose, the PGE was first dipped into a 5 µL aliquot of the studied sample. After an accumulation period (30 s), the electrode was washed with deionized water and placed in an electrochemical cell containing pure supporting electrolyte. Square-wave voltammetry (SWV) and cyclic voltammetry (CV) were performed at room temperature with a µAutolab III analyzer (EcoChemie, Utrecht, The Netherlands) in a three-electrode setup (Ag/AgCl 3M KCl electrode as a reference and a platinum wire as the auxiliary electrode). SWV parameters: frequency: 200 Hz, from 0 V to +1.5 V, concentration of tested compounds (50 µM), supporting electrolyte: Britton-Robinson buffer, pH 7.4. The flavonolignans analyzed were dissolved in methanol as a stock solution of 1 mg mL^−1 (stored in a fridge in the dark), and diluted with the supporting electrolyte and/or 0.2 M acetate buffer (pH 5) for in situ and/or ex situ voltammetry. Ex situ a.c. voltammetry (out-of-phase) was carried out with a hanging mercury drop electrode (HMDE) according to the previously published paper. In this case, the flavonolignans (50 µM) were adsorbed from 0.2 M acetate buffer (pH 5) for 30 s. For current responses and potentials (Ep), the standard deviations (S.D.) were less than ±3.55% and ±3 mV for all experiments, respectively.

[4] = system: human umbilical vein endothelial cells (HUVEC); assay: Cytotoxicity, MTT test, HUVEC; assay type: cell-based; conditions: 24 h incubation, read-out: IC50 viability (MTT-reducing ability) HUVEC
Experimental: (§1) All the cells were cultured in a humidified atmosphere with 5% (v/v) CO2 at 37 °C and subcultured before conﬂuence. Human Umbilical Vein Endothelial Cells (HUVEC) were isolated from umbilical cords of healthy non-smoker women (18–35 years) as described previously, cultivated in gelatin-coated flasks in EGM and used in passages 2–6. Primary Normal human Adult epidermal Keratinocytes (NAK) were isolated from normal skin obtained from excessive tissue removed during abdominoplasty or mammoplasty of healthy adult patients as described in [36, 50], cultivated in EpiLife medium with the addition of HKGS. Mouse fibroblasts (BALB/c 3T3 cells) were purchased from the European Collection of Cell Cultures (ECACC, Salisbury, UK) and were grown in DMEM supplemented with heat-inactivated FCS (5%, v/v) and newborn FCS, streptomycin […] and glutamine (4 mM). Hepatocyte carcinoma HepG2 cells (No. 85011430, ECACC) were cultured at 37 °C in DMEM supplemented with 2 mM L-glutamine, 1% non-essential amino acids, 100 U/mL penicillin, […] and 10% fetal bovine serum (Invitrogen, Carlsbad, CA, USA).
(§2) The cells were plated into 96-well cell culture plates and grown to near confluence. The tested compounds were placed in the respective fresh medium in serial dilutions (100 µL/well) and incubated with the cells for 24 h. After incubation, the medium was removed, the cells were washed with PBS, fresh medium containing 1 mg/mL of MTT was added and the plates were incubated for a further 3 h (37 °C). The resulting formazan was dissolved in 50 µL of 1% NH3 in DMSO, absorbance was read at 540 nm and IC50 values were obtained graphically from the dependence of cell viability on the concentration of the tested compound.

HepG2 cells = assay: Cytotoxicity, MTT test, HepG2; assay type: cell-based; conditions: Homo sapiens, 24 h incubation, read-out: IC50 viability (MTT-reducing ability) HepG2
Experimental: as §1, §2

[5] = Cytotoxicity, MTT test, range over all cells other than NAK; assay type: cell-based; conditions: human (HUVEC, HepG2) and mouse (BALB/c 3T3), all cells used other than NAK (HUVEC, BALB/c 3T3, HepG2), read-out: Cytotoxicity IC50, range over cell types
Experimental: as §1, §2

[6] = system: mouse fibroblasts (BALB/c 3T3); assay: Cytotoxicity, MTT test, BALB/c 3T3; assay type: cell-based; conditions: BALB/c3T3, 24 h incubation, read-out: IC50 viability (MTT-reducing ability) BALB/c 3T3
Experimental: as §1, §2

rat liver microsomes = assay: Inhibition of microsomal lipid peroxidation induced by tert-butyl hydroperoxide (TBARS); assay type: biochemical; conditions: rat liver microsomes, 1 mM tert-butyl hydroperoxide, TBARS
Experimental: Microsomes were prepared from rat liver homogenate as described previously and resuspended in 50 mM Tris-HCl buffer with 100 mM KCl and 0.1 mM EDTA (pH 7.4). The protein concentration in the stock microsomal suspension was determined using the Bradford method to be typically ca 30 mg protein/mL. This stock suspension was stored at −80 °C and diluted to 0.625 mg protein/mL using PBS before use. 0.4 mL of the diluted microsomal suspension was then mixed with the compounds tested (final concentration 10–200 µM in 0.01 mL DMSO) and incubated for 10 min at 37 °C. tert-Butyl hydroperoxide (0.09 mL in PBS; final concentration 1 mM) was then added and the mixture was incubated at 37 °C for 30 min. The products of lipid peroxidation were determined as thiobarbituric acid reactive substances (TBARS): 0.7 mL of […] were added, the mixture was heated (90 °C; 30 min), cooled, centrifuged (10 min; 10,000 rpm; 4 °C) and the absorbance of the supernatant at 535 nm measured. The activity was calculated as the concentration of the tested compound that inhibited the color reaction with thiobarbiturate (without the tested compound) by 50% (IC50).

[7] = system: normal human adult epidermal keratinocytes (NAK); assay: Cytotoxicity, MTT test, NAK; assay type: cell-based; conditions: Keratinocyte, 24 h incubation, read-out: IC50 viability (MTT-reducing ability) NAK
Experimental: as §1, §2

| Compound | DPPH [% of inhibition] [1] | Stability during longer incubation [2] | Oxidation potential Ep1 [3] [V] | Oxidation potential Ep2 [3] [V] | IC50 [4] [µM] | IC50 (HepG2 cells) [µM] | IC50 at 24 h [5] [µM] | IC50 [6] [µM] | IC50 ([1]; 20 µM DPPH, 30 min) [µM] | IC50 (rat liver microsomes) [µM] | IC50 [7] [µM] | Adsorption onto the electrode ([3]; ex situ (adsorptive transfer) SWV, open circuit potential) |
| --- | --- | --- | --- | --- | --- | --- | --- | --- | --- | --- | --- | --- |
| COc1cc([C@@H]2Oc3cc([C@H]4Oc5cc(O)cc(O)c5C(=O)[C@@H]4O)ccc3O[C@H]2COC(=O)CCCCCCCCCCC(=O)OC[C@@H]2Oc3ccc([C@H]4Oc5cc(O)cc(O)c5C(=O)[C@@H]4O)cc3O[C@H]2c2ccc(O)c(OC)c2)ccc1O [Compound 4, bis(((2S,3S)-3-(4-Hydroxy-3-methoxyphenyl)-6-((2R,3R)-3,5,7-trihydroxy-4-oxochroman-2-yl)-2,3-dihydrobenzo[b][1,4]dioxin-2-yl)methyl) dodecanedioate] | 9.0 ± 3.0 ^a % | signs of instability (decomposition) | 0.57 | 0.83 | – | – | – | – | – | – | – | – |
| COc1cc(C2Oc3cc(-c4oc5cc(O)cc(O)c5c(=O)c4O)ccc3OC2COC(=O)CCCCCCCCCCC(=O)OCC2Oc3ccc(-c4oc5cc(O)cc(O)c5c(=O)c4O)cc3OC2c2ccc(O)c(OC)c2)ccc1O (stereo not shown) [Compound 7, bis((3-(4-Hydroxy-3-methoxyphenyl)-6-(3,5,7-trihydroxy-4-oxo-4H-chromen-2-yl)-2,3-dihydrobenzo-[b][1,4]dioxin-2-yl)methyl) dodecanedioate] | 33.4 ± 3.1 ^c % | – | 0.57 | 0.99 | 98.4 ± 10.6 | 172 ± 11.6 | 99 to 173 | 161 ± 9 | 29 ± 0.7 | 59.2 ± 5.9 | > 200 | strictly limited and practically impossible |
| COc1cc([C@H]2Oc3cc([C@H]4Oc5cc(O)cc(O)c5C(=O)[C@@H]4O)ccc3O[C@@H]2COC(=O)CCCCCCCCCCC(=O)OC[C@@H]2Oc3ccc([C@H]4Oc5cc(O)cc(O)c5C(=O)[C@@H]4O)cc3O[C@H]2c2ccc(O)c(OC)c2)ccc1O [Compound 5, 1-(((2R,3R)-3-(4-Hydroxy-3-methoxyphenyl)-6-((2R,3R)-3,5,7-trihydroxy-4-oxochroman-2-yl)-2,3-dihydrobenzo[b][1,4]dioxin-2-yl)methyl) 12-(((2S,3S)-3-(4-hydroxy-3-methoxyphenyl)-6-((2R,3R)-3,5,7-trihydroxy-4-oxochroman-2-yl)-2,3-dihydrobenzo[b][1,4]dioxin-2-yl)methyl) dodecanedioate] | 7.0 ± 2.9 ^a % | signs of instability (decomposition) | 0.55 | 0.83 | – | – | – | – | – | – | – | – |
